PMC3411462, “Long-acting κ opioid antagonists nor-BNI, GNTI and JDTic: pharmacokinetics in mice and lipophilicity” (BMC Pharmacology, 2012)
Several values for one entry are separate records, joined by “and”; a condition that tells them apart may be missing. Equal entries are not always repeated. Where two headings read alike, the source gives them in different places.

Experiments:
[1] = Brain and plasma concentrations in mice after intraperitoneal administration (LC-MS-MS), non-compartmental analysis; assay type: in vivo; details: for [drug],plasma (free base equivalent): listed as GNTI.2HCl.H2O; for [drug],plasma (free base equivalent) / concentration at 0.5 h / concentration at 1 h / concentration at 2 h / concentration at 4 h / concentration at 24 h / AUC(0-inf) / CL/F / Vd/F: 10 mg/kg
Procedure: Doses are reported by weight of the specified salt. […] Body mass was measured to ±0.1 g.
Mice were sacrificed by cervical dislocation, then decapitated for collection of brain and blood samples. Trunk blood was collected in 1.5 mL polypropylene micro-centrifuge tubes, shaken with a few crystals of EDTA and cooled in ice-water. Samples were centrifuged at 14,000 rpm (revolutions per minute) for 15 minutes at 3 °C, then stored in glass sample vials at −20 °C until analysis. Brains were removed and immersed for 30 seconds in 2-methylbutane over dry ice, then stored in polypropylene tubes at −20 °C until sample preparation. Sample tubes were thawed in ice-water, distilled water was added (2:1 by weight) and the brain homogenized with a probe sonicator for 3 minutes over ice-water (Fisher Sonic Dismembrator 300 at 35% power). The probe was rinsed with ethanol and distilled water between samples. Brain homogenate was stored in glass sample vials at −20 °C until analysis by LC-MS-MS.
Drug concentrations (ng mL^-1) refer to the free base, and were measured by liquid chromatography-tandem mass spectrometry (LC-MS-MS) as described previously. Briefly, samples were shaken with 3 volumes of methanol and centrifuged at 3000 g. Aliquots of the supernatants were diluted with 5 volumes of water containing an appropriate internal standard. Extracts from in vitro and in vivo experiments were analyzed by multiple reaction monitoring on an API3000 or API4000 LC-MS-MS system with electrospray ion source, controlled and analyzed using the Analyst software package (Applied Biosystems, Foster City, CA). Chromatography was conducted on a Sprite Armor C18 analytical column (20 × 2.1 mm, 10 μm particle size, Analytical Sales and Products, Pompton Plains, NJ) with a 0.5 μm PEEK guard filter. Compounds were eluted with a gradient from 2% to 95% acetonitrile in water, both containing 0.1% formic acid. Compounds were detected in positive ion mode, tuned to the mass transition with the largest intensity. Analyte concentrations were determined by comparison of analyte:internal standard peak area ratios to those of standards prepared in the appropriate matrices.
For calculation of mean concentrations, the earliest values below the MRC were substituted by MRC ÷ 2, as recommended elswhere. Pharmacokinetic parameters were calculated from mean concentrations using PKSolver, employing non-compartmental analysis for extravascular administration. Curves in figures were fitted using Origin 8.5 (OriginLab, Northampton, MA) using 2-compartment models. Confidence intervals and two-tailed p values (unpaired t test) were calculated using Graphpad Quickcalcs. One outlier was identified using Grubbs' test (p < 0.01) and excluded from the analysis; see Additional file 1.

[2] = Plasma binding (unbound fraction by ultracentrifugation); assay type: in vitro ADME; details: 5 μM drug, mean, n = 3
Procedure: Unbound fractions in brain homogenate and plasma were determined by ultracentrifugation as described previously. Briefly, drug-spiked matrices (5 μM drug in plasma or brain homogenate) were centrifuged at 600,000 g for 5 h at 37 °C (plasma) or 5 °C (brain). Aliquots of the middle (water) layer were added to an equal volume of blank matrix and extracted with 5 volumes of acetonitrile containing internal standard. Aliquots of the original spiked matrix were mixed with an equal volume of blank matrix and 2 volumes of plasma ultrafiltrate (plasma) or phosphate-buffered saline (tissue) and extracted with 10 volumes of acetonitrile. Extracts were centrifuged and analyzed by LC-MS-MS. Fraction unbound was calculated from the ratio of concentration in the water layer to that in the original spiked matrix, corrected for dilution as described previously.

[3] = Brain homogenate binding (unbound fraction by ultracentrifugation); assay type: in vitro ADME
Procedure: Unbound fractions in brain homogenate and plasma were determined by ultracentrifugation as described previously. Briefly, drug-spiked matrices (5 μM drug in plasma or brain homogenate) were centrifuged at 600,000 g for 5 h at 37 °C (plasma) or 5 °C (brain). Aliquots of the middle (water) layer were added to an equal volume of blank matrix and extracted with 5 volumes of acetonitrile containing internal standard. Aliquots of the original spiked matrix were mixed with an equal volume of blank matrix and 2 volumes of plasma ultrafiltrate (plasma) or phosphate-buffered saline (tissue) and extracted with 10 volumes of acetonitrile. Extracts were centrifuged and analyzed by LC-MS-MS. Fraction unbound was calculated from the ratio of concentration in the water layer to that in the original spiked matrix, corrected for dilution as described previously. Based on previous results for basic drugs, in vivo free fraction in brain was assumed to be at least 3-fold lower than the in vitro free fraction in brain homogenate.

mice = experiment: Fatalities and behavioral effects after i.p. administration
Procedure: Experiments were performed between 10 am and 6 pm. Mice were not used in other experiments, or exposed to other drugs, before testing began.
Doses are reported by weight of the specified salt. Intraperitoneal injections were administered in distilled water vehicle (10 mL kg^-1). Body mass was measured to ±0.1 g. Some values were inadvertently measured on a low-precision balance (± 2.5 g); these timepoints were replicated at ±0.1 g.

[4] = 0.5 h, 10 mg/kg i.p., individual mice
[5] = 1 h, 10 mg/kg i.p., individual mice
[6] = 2 h, 10 mg/kg i.p., individual mice
[7] = male, Swiss-Webster, mouse, ip, plasma NCA, 10 mg/kg i.p.

N=C(N)Nc1ccc2[nH]c3c(c2c1)C[C@@]1(O)[C@H]2Cc4ccc(O)c5c4[C@@]1(CCN2CC1CC1)[C@H]3O5 [GNTI, 5’-guanidinonaltrindole]
Time of maximal mean plasma level ([1]; 10 mg kg^-1 i.p., mice): 30 min | [drug],brain (free base equivalent) [1, 4]: <120 ng/g | [drug],plasma (free base equivalent) [1, 4]: 3610 ng/mL and 1790 ng/mL and 3840 ng/mL | [drug],brain (free base equivalent) [1, 5]: <120 ng/g | [drug],plasma (free base equivalent) [1, 5]: 1750 ng/mL and 2420 ng/mL and 4880 ng/mL | [drug],brain (free base equivalent) [1, 6]: <120 ng/g | [drug],plasma (free base equivalent) [1, 6]: 1120 ng/mL and 3700 ng/mL and 2910 ng/mL | [drug],plasma (free base equivalent) ([1]; 4 h, 10 mg/kg i.p., individual mice): 114 ng/mL and 206 ng/mL | [drug],plasma (free base equivalent) ([1]; 24 h, 10 mg/kg i.p., individual mice): <13 ng/mL | Brain levels (below MRC) ([1]; all timepoints, 10 mg kg^-1 i.p.): < 0.12 µg/mL | C max,brain ([1]; brain, 10 mg kg^-1 i.p., mice): < 0.12 µg/mL | Decline of mean plasma concentration from peak ([1]; by 24 hours, 10 mg kg^-1 i.p.): at least 98% | Kp uu ([1]; male, Swiss-Webster, mouse, brain and plasma (unbound), intraperitoneal, postmortem samples, 13–18 minutes after 39 mg kg^-1 GNTI·2CF3CO2H, read-out: Cmax,brain,u/Cmax,p,u): < 0.0007 | Kp ([1]; male, Swiss-Webster, mouse, brain and plasma, intraperitoneal, postmortem samples, 13–18 minutes after 39 mg kg^-1 GNTI·2CF3CO2H, read-out: Cmax,brain/Cmax,p): 0.0085 | concentration at 0.5 h ([1]; male, Swiss-Webster, mouse, brain, ip, 0.5 h, 10 mg/kg i.p., individual mice, read-out: [drug],brain (free base equivalent)): < 120 ng/g | concentration at 0.5 h ([1]; male, Swiss-Webster, mouse, brain, ip, 0.5 h, 10 mg/kg i.p., read-out: mean (brain)): < 120 ng/g | concentration at 1 h ([1]; male, Swiss-Webster, mouse, brain, ip, 1 h, 10 mg/kg i.p., individual mice, read-out: [drug],brain (free base equivalent)): < 120 ng/g | concentration at 2 h ([1]; male, Swiss-Webster, mouse, brain, ip, 2 h, 10 mg/kg i.p., individual mice, read-out: [drug],brain (free base equivalent)): < 120 ng/g | Tmax ([1]; male, Swiss-Webster, mouse, in vivo, ip, ·2HCl salts, 10 mg kg^-1 i.p., mice): 0.5 h | AUC(0-t) [1, 7]: 9.45 µg·h/mL | Tmax [1, 7]: 0.5 h | k el ([1]; male, Swiss-Webster, mouse, ip, plasma NCA, 10 mg/kg i.p., read-out: Lambda_z (converted)): 6.68e-05 s⁻¹ | MRT inf ([1]; male, Swiss-Webster, mouse, ip, plasma NCA, 10 mg/kg i.p., read-out: MRT 0-inf_obs): 2.18 h | half-life ([1]; male, Swiss-Webster, mouse, ip, plasma NCA, 10 mg/kg i.p., read-out: t1/2 (converted)): 2.88 h | Cmax ([1]; male, Swiss-Webster, mouse, ip, plasma, 10 mg kg^-1 i.p., mice, read-out: C max,p): 3.08 µg/mL | concentration at 0.5 h ([1]; male, Swiss-Webster, mouse, plasma, intraperitoneal, 0.5 h, read-out: Conc (plasma, NCA input)): 3.08 µg/mL | concentration at 1 h ([1]; male, Swiss-Webster, mouse, plasma, intraperitoneal, 1 h, read-out: Conc (plasma, NCA input)): 3.02 µg/mL | concentration at 2 h ([1]; male, Swiss-Webster, mouse, plasma, intraperitoneal, 2 h, read-out: Conc (plasma, NCA input)): 2.58 µg/mL | concentration at 4 h ([1]; male, Swiss-Webster, mouse, plasma, intraperitoneal, 4 h, read-out: Conc (plasma, NCA input)): 0.154 µg/mL | concentration at 24 h ([1]; male, Swiss-Webster, mouse, plasma, intraperitoneal, 24 h, read-out: Conc (plasma, NCA input)): 0.0088 µg/mL | concentration at 0.5 h ([1]; male, Swiss-Webster, mouse, plasma, ip, 0.5 h, 10 mg/kg i.p., read-out: mean (plasma)): 3.08 µg/mL | concentration at 1 h ([1]; male, Swiss-Webster, mouse, plasma, ip, 1 h, 10 mg/kg i.p., read-out: mean (plasma)): 3.02 µg/mL | concentration at 2 h ([1]; male, Swiss-Webster, mouse, plasma, ip, 2 h, 10 mg/kg i.p., read-out: mean (plasma)): 2.58 µg/mL | concentration at 4 h ([1]; male, Swiss-Webster, mouse, plasma, ip, 4 h, 10 mg/kg i.p., individual mice, read-out: [drug],plasma (free base equivalent)): 0.142 µg/mL | concentration at 4 h ([1]; male, Swiss-Webster, mouse, plasma, ip, 4 h, 10 mg/kg i.p., read-out: mean (plasma)): 0.154 µg/mL | concentration at 24 h ([1]; male, Swiss-Webster, mouse, plasma, ip, 24 h, 10 mg/kg i.p., individual mice, read-out: [drug],plasma (free base equivalent)): 0.013 µg/mL | concentration at 24 h ([1]; male, Swiss-Webster, mouse, plasma, ip, 24 h, 10 mg/kg i.p., <MRC substituted by MRC/2, read-out: mean (plasma)): 0.009 µg/mL | AUC(0-inf) ([1]; male, Swiss-Webster, mouse, plasma, ip, plasma NCA, 10 mg/kg i.p., read-out: AUC 0-inf_obs): 9.49 µg·h/mL | CL/F ([1]; male, Swiss-Webster, mouse, plasma, ip, plasma NCA, 10 mg/kg i.p., read-out: Cl/F_obs (converted)): 1.05 L/h/kg | Vd/F ([1]; male, Swiss-Webster, mouse, plasma, ip, plasma NCA, 10 mg/kg i.p., read-out: Vz/F_obs): 4.38 L/kg | AUC(0-inf) ([1]; male, Swiss-Webster, mouse, plasma, ip, plasma, 10 mg kg^-1 i.p., non-compartmental analysis, read-out: AUC 0–∞,p): 9.49 µg·h/mL | CL/F ([1]; male, Swiss-Webster, mouse, plasma, ip, plasma, 10 mg kg^-1 i.p., non-compartmental analysis, read-out: CL/F (converted)): 1 L/h/kg | Vd/F ([1]; male, Swiss-Webster, mouse, plasma, ip, plasma, 10 mg kg^-1 i.p., non-compartmental analysis, read-out: V z /F): 4.4 L/kg | AUMC 0-inf_obs ([1]; plasma NCA, 10 mg/kg i.p.): 20681.1 ng/ml*h^2 | Tlag ([1]; plasma NCA, 10 mg/kg i.p.): 0 h | C max,brain,u ([1]; unbound brain, 10 mg kg^-1 i.p., in vivo brain binding assumed at least 3-fold greater than homogenate): < 6 nM | fraction unbound at 5 h, 5 μM [2]: 0.28 | fraction unbound at 5 h, 5 μM ([3]; 5 μM drug, mean, n = 3, corrected for dilution, read-out: Fraction unbound, Brain homogenate): 0.07 | fraction unbound at 5 h, 5 μM ([3]; Brain homogenate, read-out: % free (uncorrected)): 0.19 | Fatalities (mice; 10 mg kg^-1, 15 mice monitored for at least 30 minutes): no fatalities | Time to death after injection (mice; 30 mg kg^-1): ≤ 11 min | Fatalities (mice; 30 mg kg^-1, three mice): all three mice unexpectedly became ataxic, followed by convulsions and death
